Reference: patent US11230541B2, “Heterocyclic compound” (Takeda Pharmaceutical Company Limited, priority 2017, dated 2022)

Tests used:
[1] = target: T1, NMDA receptor containing the NR2B subunit (Homo sapiens, UniProt Q13224); conditions: continuous intravenous administration; cited from earlier work
[2] = target: T2, NMDA receptor containing the NR2B subunit (Rattus norvegicus, UniProt Q00960); conditions: rodents; cited from earlier work
T2 construct: host or cells: rodents, in vivo

[3] = target: T3, NMDA receptor composed of four subunits including 2 sets of heterodimers of NR1 and NR2B (Homo sapiens, UniProt Q13224); assay: NR2B Ca2+ influx assay (FLIPR, Fluo-4) in HEK293 cells expressing human GRIN1 and GRIN2B; type: cell-based; conditions: HEK293, 10 μM final compound concentration, glutamic acid/glycine-induced Ca2+ influx, read-out: inhibitory rate (10 μM compound concentration)
T3 construct: host or cells: HEK293 (tetracycline-induced expression)
T3 sequence (Q13224 27-1484, other chains not shown): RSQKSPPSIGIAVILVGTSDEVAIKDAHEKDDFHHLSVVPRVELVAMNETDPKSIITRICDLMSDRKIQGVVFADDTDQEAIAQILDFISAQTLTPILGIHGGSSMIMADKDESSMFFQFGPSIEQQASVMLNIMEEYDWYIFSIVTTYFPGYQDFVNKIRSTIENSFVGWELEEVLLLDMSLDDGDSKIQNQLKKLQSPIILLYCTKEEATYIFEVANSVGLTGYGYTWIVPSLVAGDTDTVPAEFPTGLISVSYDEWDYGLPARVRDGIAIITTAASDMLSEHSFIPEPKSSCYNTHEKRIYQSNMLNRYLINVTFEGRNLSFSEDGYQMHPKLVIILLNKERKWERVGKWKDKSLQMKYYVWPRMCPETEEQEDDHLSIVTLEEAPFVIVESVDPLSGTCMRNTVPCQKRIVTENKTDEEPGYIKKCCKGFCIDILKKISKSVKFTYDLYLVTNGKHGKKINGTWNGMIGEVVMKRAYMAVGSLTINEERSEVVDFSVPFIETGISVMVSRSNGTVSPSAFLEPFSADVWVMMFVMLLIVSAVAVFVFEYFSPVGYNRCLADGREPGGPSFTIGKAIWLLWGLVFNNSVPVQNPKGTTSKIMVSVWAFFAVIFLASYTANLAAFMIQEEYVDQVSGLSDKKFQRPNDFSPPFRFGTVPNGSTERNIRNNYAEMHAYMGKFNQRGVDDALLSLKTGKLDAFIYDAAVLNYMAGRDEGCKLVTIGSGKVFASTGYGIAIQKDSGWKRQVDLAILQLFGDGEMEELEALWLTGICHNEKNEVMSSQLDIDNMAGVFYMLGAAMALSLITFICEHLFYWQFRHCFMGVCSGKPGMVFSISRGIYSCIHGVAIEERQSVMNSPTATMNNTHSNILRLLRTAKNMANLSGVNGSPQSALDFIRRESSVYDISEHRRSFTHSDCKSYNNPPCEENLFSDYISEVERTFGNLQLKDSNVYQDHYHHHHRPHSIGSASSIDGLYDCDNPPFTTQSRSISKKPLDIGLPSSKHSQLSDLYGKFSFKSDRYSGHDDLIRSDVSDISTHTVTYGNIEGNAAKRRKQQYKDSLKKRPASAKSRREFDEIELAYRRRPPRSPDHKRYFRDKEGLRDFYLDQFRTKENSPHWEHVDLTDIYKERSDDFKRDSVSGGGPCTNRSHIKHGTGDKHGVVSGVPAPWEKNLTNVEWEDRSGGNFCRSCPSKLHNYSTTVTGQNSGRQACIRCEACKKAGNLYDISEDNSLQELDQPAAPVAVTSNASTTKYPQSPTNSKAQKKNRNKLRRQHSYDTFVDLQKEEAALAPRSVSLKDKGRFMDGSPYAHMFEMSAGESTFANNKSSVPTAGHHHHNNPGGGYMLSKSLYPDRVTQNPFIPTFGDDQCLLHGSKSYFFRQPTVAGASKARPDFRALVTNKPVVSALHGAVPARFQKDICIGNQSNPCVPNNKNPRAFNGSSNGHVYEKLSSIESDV
Outline: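 Inhibition rate was calculated from 5-min cumulative Fluo-4 signal (FLIPR, 3-s reads), using agonist-free buffer wells as 100% inhibition. Compound, 10 μM final, was applied 15 min before adding buffer with 30 μM glutamic acid and glycine to HEK293 cells with tetracycline-induced human NR1/NR2B, in HEPES pH 7.2 with 1.8 mM CaCl2.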

[4] = target: T1, NMDA receptor containing the NR2B subunit; conditions: in vivo; cited from earlier work
[5] = test system: NMDA receptor; conditions: continuous intravenous administration; cited from earlier work
[6] = test system: NMDA receptor; conditions: in vivo; cited from earlier work

T1 sequence (Q13224 27-1484, other chains not shown): as above
T2 sequence (Q00960 27-1482, other chains not shown): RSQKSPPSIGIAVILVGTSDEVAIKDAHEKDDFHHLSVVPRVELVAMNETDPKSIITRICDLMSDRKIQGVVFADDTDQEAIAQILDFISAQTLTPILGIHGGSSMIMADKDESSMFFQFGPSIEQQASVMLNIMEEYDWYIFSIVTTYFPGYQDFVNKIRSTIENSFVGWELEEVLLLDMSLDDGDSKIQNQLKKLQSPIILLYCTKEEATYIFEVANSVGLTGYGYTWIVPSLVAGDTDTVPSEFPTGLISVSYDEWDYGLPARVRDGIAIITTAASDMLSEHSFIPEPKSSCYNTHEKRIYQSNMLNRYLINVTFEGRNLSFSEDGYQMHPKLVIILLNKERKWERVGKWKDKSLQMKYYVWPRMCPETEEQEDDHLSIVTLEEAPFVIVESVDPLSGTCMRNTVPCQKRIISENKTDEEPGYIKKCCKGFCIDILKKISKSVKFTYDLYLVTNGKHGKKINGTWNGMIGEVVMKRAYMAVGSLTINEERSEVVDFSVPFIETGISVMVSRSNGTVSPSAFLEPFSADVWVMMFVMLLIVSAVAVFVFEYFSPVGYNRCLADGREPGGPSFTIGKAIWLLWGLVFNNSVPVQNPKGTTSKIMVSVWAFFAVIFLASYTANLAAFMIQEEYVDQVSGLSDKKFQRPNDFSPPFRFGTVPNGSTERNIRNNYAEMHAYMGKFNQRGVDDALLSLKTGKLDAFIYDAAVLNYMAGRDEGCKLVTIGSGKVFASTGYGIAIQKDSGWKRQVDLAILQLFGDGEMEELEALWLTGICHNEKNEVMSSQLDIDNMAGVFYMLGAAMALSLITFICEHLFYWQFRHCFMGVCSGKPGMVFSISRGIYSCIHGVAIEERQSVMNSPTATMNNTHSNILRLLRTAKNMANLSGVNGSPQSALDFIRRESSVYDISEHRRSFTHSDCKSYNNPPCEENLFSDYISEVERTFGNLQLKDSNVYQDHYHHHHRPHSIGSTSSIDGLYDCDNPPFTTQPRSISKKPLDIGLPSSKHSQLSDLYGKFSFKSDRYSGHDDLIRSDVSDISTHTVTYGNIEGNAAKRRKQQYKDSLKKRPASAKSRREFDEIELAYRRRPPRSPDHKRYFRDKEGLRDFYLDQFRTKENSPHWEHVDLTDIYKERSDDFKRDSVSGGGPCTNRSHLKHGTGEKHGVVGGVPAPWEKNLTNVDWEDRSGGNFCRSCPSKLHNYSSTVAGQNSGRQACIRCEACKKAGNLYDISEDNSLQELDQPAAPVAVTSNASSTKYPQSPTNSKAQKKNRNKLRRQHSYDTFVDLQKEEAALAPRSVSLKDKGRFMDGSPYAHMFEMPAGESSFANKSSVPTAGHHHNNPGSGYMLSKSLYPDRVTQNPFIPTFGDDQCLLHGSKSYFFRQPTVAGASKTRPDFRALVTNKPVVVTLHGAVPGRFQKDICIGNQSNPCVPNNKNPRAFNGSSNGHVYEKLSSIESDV

| Structure (SMILES) | inhibition at 10 µM [3] [%] | further results |
| --- | --- | --- |
| C[C@@H]([C@@H](O)c1ccc(O)cc1)N1CCC(O)(c2ccccc2)CC1 [CP-101, 606] |  | treatment resistant-depression symptom [1]: significantly improves treatment resistant-depression symptom; number of occurrence and depth of cortical spreading depression [2]: suppress the number of occurrence and the depth of cortical spreading depression |
| COc1ccc2ncn(C)c2c1CNC(=O)c1ccc(OC(F)F)nc1 [Example 276, 6-(difluoromethoxy)-N-[(6-methoxy-l-methyl-1H-benzimidazol-7-yl)methyl]pyridine-3-carboxamide] | 88 |  |
| COc1ccc2ncn(C)c2c1CNC(=O)c1ccc(OC(F)F)cc1F [Example 277, 4-(difluoromethoxy)-2-fluoro-N-[(6-methoxy-1-methyl-1H-benzimidazol-7-yl)methyl]benzamide] | 63 |  |
| COc1ccc2ncn(C)c2c1CNC(=O)c1ccc(CC(F)(F)F)cc1 [Example 278, N-[(6-methoxy-1-methyl-1H-benzimidazol-7-yl)methyl]-4-(2,2,2-trifluoroethyl)-benzamide] | 77 |  |
| COCc1ccc2ncn(C)c2c1CNC(=O)c1cc(F)c(OC)c(F)c1 [Example 279, 3,5-difluoro-4-methoxy-N-{[6-(methoxymethyl)-1-methyl-1H-benzimidazol-7-yl]methyl}benzamide] | 88 |  |
| COCc1ccc2ncn(C)c2c1CNC(=O)c1ccc(C(F)(F)F)cc1 [Example 280, N-{[6-(methoxymethyl)-1-methyl-1H-benzimidazol-7-yl]methyl}-4-(trifluoromethyl)-benzamide] | 75 |  |
| COCc1ccc2ncn(C)c2c1CNC(=O)c1cnc(OC(F)F)c(F)c1 [Example 281, 6-(difluoromethoxy)-5-fluoro-N-{[6-(methoxymethyl)-1-methyl-lH-benzimidazol-7-yl]methyl}pyridine-3-carboxamide] | 82 |  |
| COCc1ccc2ncn(C)c2c1CNC(=O)c1csc(C(F)(F)F)c1 [Example 282, N-{[6-(methoxymethyl)-1-methyl-lH-benzimidazol-7-yl]methyl)-5-(trifluoromethyl)-thiophene-3-carboxamide] | 76 |  |
| COCc1ccc2ncn(C)c2c1CNC(=O)c1ccc(OC(F)F)c(Cl)c1 [Example 283, 3-chloro-4-(difluoromethoxy)-N-{[6-(methoxymethyl)-1-methyl-1H-benzimidazol-7-yl]methyl}benzamide] | 93 |  |
| COCc1ccc2ncn(C)c2c1CNC(=O)c1ccc(OC(F)(F)F)c(F)c1 [Example 284, 3-fluoro-N-{[6-(methoxymethyl)-1-methyl-1H-benzimidazol-7-yl]methyl}-4-(trifluoromethoxy)-benzamide] | 95 |  |
| CC(C(O)c1ccc(O)cc1)N1CCC(Cc2ccccc2)CC1 (stereo not drawn) [Ifenprodil] |  | pain sense threshold [4]: pain sense threshold increases |
| C[C@@H](CN1CCC(Cc2ccccc2)CC1)[C@@H](O)c1ccc(O)cc1 [Ro25-6981] |  | number of occurrence and depth of cortical spreading depression [2]: suppress the number of occurrence and the depth of cortical spreading depression |
| CNC1(c2ccccc2Cl)CCCCC1=O (stereo not drawn) [ketamine] |  | depression symptom accompanying major depression and bipolar disorder [5]: improves depression symptom accompanying major depression and bipolar disorder rapidly and in a sustained manner |
| CC12CC3CC(C)(C1)CC(N)(C3)C2 [memantine] |  | peripheral symptoms of dementia [6]: partially improves peripheral symptoms of dementia |
